Activity calls are given as the source filed them. The rule behind the calls is not given here.
Experiments:
[1] = Antiproliferative activity against human iPSC derived cardiomyocytes assessed as fold increase in cell number at 100 nM incubated for 4 days without passaging by Hoechst staining based analysis; format: functional, iPSC-CM; details: time 4 day
[2] = Cytotoxicity against human iPSC derived cardiomyocytes at >=500 nM incubated for 4 days without passaging by Hoechst staining based analysis; format: toxicity, cell-based; details: ipsc-cm, 96 h, 0.5 µM, time 4 day
Forkhead box protein O1 = Forkhead box protein O1 (Homo sapiens, UniProt Q12778); test: Inhibition of FOXO-1 in human HepG2 cells incubated for 20 hrs by Renilla luciferase reporter gene assay; format: cell-based
[3] = (§1) Antiproliferative activity against human iPSC derived cardiomyocytes assessed as increase in cell number by measuring fold change after 3 passages at 100 nM incubated for 2 days by Hoechst staining based analysis; format: functional, iPSC-CM; details: time 2 day
iPSC-CM [4] = test: as §1; format: functional; details: time 2.0 day
iPSC-CM [5] = test: Upregulation of MYH6 gene expression in human iPSC derived cardiomyocytes at 100 nM incubated for 5 days by qRT-PCR analysis; format: functional, cell-based; details: time 5.0 day
iPSC-CM [6] = test: Upregulation of TBX2 gene expression in human iPSC derived cardiomyocytes at 100 nM incubated for 5 days by qRT-PCR analysis; format: functional, cell-based; details: time 5.0 day
iPSC-CM [7] = test: Upregulation of IRX4 gene expression in human iPSC derived cardiomyocytes aat 100 nM incubated for 5 days by qRT-PCR analysis; format: functional, cell-based; details: time 5.0 day
iPSC-CM [8] = test: Downregulation of MYH7 gene expression in human iPSC derived cardiomyocytes measured after two passages following incubation for 5 days by qRT PCR analysis; format: functional, cell-based; details: dose 3-100 nM, time 5.0 day, DDE = dose-dependent effect
iPSC-CM [9] = test: Downregulation of MYL2 gene expression in human iPSC derived cardiomyocytes measured after two passages following incubation for 5 days by qRT PCR analysis; format: functional, cell-based; details: dose 3-100 nM, time 5.0 day, DDE = dose-dependent effect
iPSC-CM [10] = test: Downregulation of NPPA gene expression in human iPSC derived cardiomyocytes measured after two passages following incubation for 5 days by qRT PCR analysis; format: functional, cell-based; details: dose 3-100 nM, time 5.0 day, DDE = dose-dependent effect
iPSC-CM [11] = test: Downregulation of MLC2v protein level in human iPSC derived cardiomyocytes at 100 nM incubated for 3 weeks by immunofluorescence assay; format: functional, cell-based
iPSC-CM [12] = test: Downregulation of ANP protein level in human iPSC derived cardiomyocytes at 100 nM incubated for 3 weeks by immunofluorescence assay; format: functional, cell-based
iPSC-CM [13] = test: Downregulation of MYH7 gene expression in human iPSC derived cardiomyocytes at 100 nM incubated for 5 days by qRT-PCR analysis; format: functional, cell-based; details: time 5.0 day
iPSC-CM [14] = test: Downregulation of MYL2 gene expression in human iPSC derived cardiomyocytes at 100 nM incubated for 5 days by qRT-PCR analysis; format: functional, cell-based; details: time 5.0 day
iPSC-CM [15] = test: Downregulation of NPPA gene expression in human iPSC derived cardiomyocytes at 100 nM incubated for 5 days by qRT-PCR analysis; format: functional, cell-based; details: time 5.0 day

Forkhead box protein O1, sequence (Q12778 whole entry): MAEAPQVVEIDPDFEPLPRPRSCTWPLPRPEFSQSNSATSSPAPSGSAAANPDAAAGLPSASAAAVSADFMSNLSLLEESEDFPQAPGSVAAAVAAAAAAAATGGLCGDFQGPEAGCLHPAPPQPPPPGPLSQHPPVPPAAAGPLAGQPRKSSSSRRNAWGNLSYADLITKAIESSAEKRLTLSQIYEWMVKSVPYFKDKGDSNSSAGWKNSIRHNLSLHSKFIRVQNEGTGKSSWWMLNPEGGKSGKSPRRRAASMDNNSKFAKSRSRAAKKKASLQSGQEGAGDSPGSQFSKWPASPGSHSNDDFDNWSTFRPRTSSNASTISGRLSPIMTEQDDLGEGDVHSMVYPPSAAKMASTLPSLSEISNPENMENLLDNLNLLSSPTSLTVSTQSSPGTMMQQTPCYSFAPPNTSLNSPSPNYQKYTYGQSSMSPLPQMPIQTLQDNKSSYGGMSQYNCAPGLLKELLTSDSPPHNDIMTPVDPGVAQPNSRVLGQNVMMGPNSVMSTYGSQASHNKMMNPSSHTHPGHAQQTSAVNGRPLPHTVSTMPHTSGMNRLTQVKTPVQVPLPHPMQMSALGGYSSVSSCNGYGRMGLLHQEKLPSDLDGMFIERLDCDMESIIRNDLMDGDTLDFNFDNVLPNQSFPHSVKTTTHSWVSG

**Q.** Which “fold change (FC)” value [1] does the source give for `CCn1cc(C(=O)O)c(=O)c2c(N)c(F)c(NC3CCCCC3)cc21` here?
**A.** >3

**Q.** What about the Activity [2] of the same compound?
**A.** Toxic

**Q.** And the IC50 (Forkhead box protein O1)?
**A.** 33 nM

**Q.** And the “fold change (FC)” value [3]?
**A.** >30

**Q.** And the Activity (iPSC-CM [4])?
**A.** Active

**Q.** What about the Activity (iPSC-CM [5]) of the same compound?
**A.** Active

**Q.** And the Activity (iPSC-CM [6])?
**A.** Active

**Q.** What about the Activity (iPSC-CM [7]) of the same compound?
**A.** Active

**Q.** What about the Activity (iPSC-CM [8]) of the same compound?
**A.** Dde

**Q.** What about the Activity (iPSC-CM [9]) of the same compound?
**A.** Dde

**Q.** What about the Activity (iPSC-CM [10]) of the same compound?
**A.** Dde

**Q.** What about the Activity (iPSC-CM [11]) of the same compound?
**A.** Active

**Q.** And the Activity (iPSC-CM [12])?
**A.** Active

**Q.** And the Activity (iPSC-CM [13])?
**A.** Active

**Q.** What about the Activity (iPSC-CM [14]) of the same compound?
**A.** Active

**Q.** And the Activity (iPSC-CM [15])?
**A.** Active
